{"source": "patent US20080076812A1", "about": "(priority 2006, published 2008)", "assay": "Drug-excipient compatibility study", "settings": "binary drug/excipient mixture, 40° C./75% RH open bottle; sodium salt", "note": "Where “and” joins values, the source holds several entries; their conditions need not be identical. Identical values can stand only once.", "text": "This study was designed to evaluate the effects of various diluents, binders, disintegrants, lubricants, buffering agents, and antioxidants on the stability of the drug substance.", "data": [{"smiles": "Cc1cc2c(cc1CC(=O)c1sccc1S(=O)(=O)[N-]c1onc(C)c1Cl)OCO2.[Na+]", "note": "[Sitaxsentan Sodium, N-(4-chloro-3-methyl-5-isoxazolyl)-2-[2-methyl-4,5-(methylenedioxy)phenylacetyl]-thiophene-3-sulfonamide, sodium salt]", "values": [{"measurement": "Assay (%) T = 2 Weeks", "value": 98.0, "unit": "%"}, {"measurement": "Total Related Substanes (%) T = 2 Weeks", "value": "0.19% and 0.18%"}, {"measurement": "Total Related Substanes (%) T = 4 Weeks", "value": "0.24% and 0.12%"}]}]}
